Laboratory results reported in ChEMBL document CHEMBL1201862, “PubChem BioAssay data set” (2004).
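1) Cells in 96-well plates. 2) Compound, 48 h, 5 concentrations. 3) Linear interpolation between surrounding doses. 4) Unreached endpoint = highest concentration. At the GI50, growth is halved.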 Calls of active or inactive are those of the source. Rule as the data show it: active = GI50 up to about 1.1 µM and inactive = higher.

Legend:
Test in all cases: DTP human tumour cell line panel, 48 h
HOP-92 = system: HOP-92
RXF 393 = system: RXF 393
HCT-15 = system: HCT-15
NCI-H226 = system: NCI-H226
SK-MEL-2 = system: SK-MEL-2
KM12 = system: KM12
SW-620 = system: SW-620
SF-539 = system: SF-539
Malme-3M = system: Malme-3M
OVCAR-8 = system: OVCAR-8
SN12C = system: SN12C
A498 = system: A498
SK-MEL-28 = system: SK-MEL-28
T47D = system: T47D
HL-60 = system: HL-60
A549 = system: A549
NCI-H522 = system: NCI-H522
M14 = system: M14
CAKI-1 = system: CAKI-1
NCI-H460 = system: NCI-H460
MOLT-4 = system: MOLT-4
SNB-19 = system: SNB-19
COLO 205 = system: COLO 205
Hs-578T = system: Hs-578T
NCI-H23 = system: NCI-H23
HOP-62 = system: HOP-62
HT-29 = system: HT-29
IGROV-1 = system: IGROV-1
UACC-257 = system: UACC-257
SR = system: SR
PC-3 = system: PC-3
HCT-116 = system: HCT-116
UO-31 = system: UO-31
MDA-MB-231 = system: MDA-MB-231
OVCAR-4 = system: OVCAR-4
LOX IMVI = system: LOX IMVI
SNB-75 = system: SNB-75
SF-295 = system: SF-295
SF-268 = system: SF-268
RPMI-8226 = system: RPMI-8226
SK-MEL-5 = system: SK-MEL-5
MCF7 = system: MCF7
TK-10 = system: TK-10
SK-OV-3 = system: SK-OV-3
786-0 = system: 786-0
MDA-N = system: MDA-N
OVCAR-3 = system: OVCAR-3
MDA-MB-435 = system: MDA-MB-435
EKVX = system: EKVX
ACHN = system: ACHN
U-251 = system: U-251
UACC-62 = system: UACC-62
DU-145 = system: DU-145
K562 = system: K562
NCI/ADR-RES = system: NCI/ADR-RES
OVCAR-5 = system: OVCAR-5
BT-549 = system: BT-549

SMILES: Clc1cccc(Cl)c1C(Nc1nncs1)Nc1nncs1
- GI50 (HOP-92): > 100 µM (inactive)
- GI50 (RXF 393): 33.5 µM (inactive)
- GI50 (HCT-15): 13 µM
- GI50 (NCI-H226): 26.9 µM (inactive)
- GI50 (SK-MEL-2): 38.6 µM (inactive)
- GI50 (KM12): 27.7 µM (inactive)
- GI50 (SW-620): 20.7 µM (inactive)
- GI50 (SF-539): 23.9 µM (inactive)
- GI50 (Malme-3M): 64.4 µM (inactive)
- GI50 (OVCAR-8): 33.8 µM (inactive)
- GI50 (SN12C): 38.4 µM (inactive)
- GI50 (A498): 49.2 µM (inactive)
- GI50 (SK-MEL-28): 21.8 µM (inactive)
- GI50 (T47D): 56.8 µM (inactive)
- GI50 (HL-60): 17.3 µM (inactive)
- GI50 (A549): 48.9 µM (inactive)
- GI50 (NCI-H522): 22.3 µM (inactive)
- GI50 (M14): 36.2 µM (inactive)
- GI50 (CAKI-1): 75.3 µM (inactive)
- GI50 (NCI-H460): 25 µM (inactive)
- GI50 (MOLT-4): 17.3 µM (inactive)
- GI50 (SNB-19): 52 µM (inactive)
- GI50 (COLO 205): 35.4 µM (inactive)
- GI50 (Hs-578T): 71.3 µM (inactive)
- GI50 (NCI-H23): 40.2 µM (inactive)
- GI50 (HOP-62): 50.4 µM (inactive)
- GI50 (HT-29): 14.1 µM (inactive)
- GI50 (IGROV-1): 55.3 µM (inactive)
- GI50 (UACC-257): 18.2 µM (inactive)
- GI50 (SR): 4.84 µM (inactive)
- GI50 (PC-3): 9.35 µM (inactive)
- GI50 (HCT-116): 28.6 µM (inactive)
- GI50 (UO-31): 62.7 µM (inactive)
- GI50 (MDA-MB-231): > 100 µM (inactive)
- GI50 (OVCAR-4): 59.4 µM (inactive)
- GI50 (LOX IMVI): 21.8 µM (inactive)
- GI50 (SNB-75): > 100 µM (inactive)
- GI50 (SF-295): 38.2 µM (inactive)
- GI50 (SF-268): 81.7 µM (inactive)
- GI50 (RPMI-8226): 46 µM (inactive)
- GI50 (SK-MEL-5): 32.5 µM (inactive)
- GI50 (MCF7): 36 µM (inactive)
- GI50 (TK-10): 23.9 µM (inactive)
- GI50 (SK-OV-3): 32 µM (inactive)
- GI50 (786-0): 28.7 µM (inactive)
- GI50 (MDA-N): 9.27 µM (inactive)
- GI50 (OVCAR-3): 46.7 µM (inactive)
- GI50 (MDA-MB-435): 11.1 µM (inactive)
- GI50 (EKVX): 43.9 µM (inactive)
- GI50 (ACHN): 73.6 µM (inactive)
- GI50 (U-251): 41.1 µM (inactive)
- GI50 (UACC-62): 67 µM (inactive)
- GI50 (DU-145): 51.5 µM (inactive)
- GI50 (K562): 31.7 µM (inactive)
- GI50 (NCI/ADR-RES): 50 µM (inactive)
- GI50 (OVCAR-5): 36.5 µM (inactive)
- GI50 (BT-549): 73.3 µM (inactive)
